{
  "source": "patent US20020028193A1",
  "about": "“Recombinant beta2-adrenergic receptor delivery and use in treating airway and vascular diseases” (priority 2000, published 2002)",
  "molecules": {"B1": {"name": "m1GRE5 (core printed only) (dsDNA)", "DNA 1": "GGGTGAGCTATTCT", "DNA 2": "AGAATAGCTCACCC"}, "B2": {"name": "GRE5 (rat beta2AR gene, 35 bp oligonucleotide; core printed only) (dsDNA)", "DNA 1": "GGGTGAGCTGTTCT", "DNA 2": "AGAACAGCTCACCC"}},
  "key": {"[1]": {"target": "T1, β2AR (Rattus norvegicus, UniProt P10608)", "T1 sequence (P10608 whole entry)": "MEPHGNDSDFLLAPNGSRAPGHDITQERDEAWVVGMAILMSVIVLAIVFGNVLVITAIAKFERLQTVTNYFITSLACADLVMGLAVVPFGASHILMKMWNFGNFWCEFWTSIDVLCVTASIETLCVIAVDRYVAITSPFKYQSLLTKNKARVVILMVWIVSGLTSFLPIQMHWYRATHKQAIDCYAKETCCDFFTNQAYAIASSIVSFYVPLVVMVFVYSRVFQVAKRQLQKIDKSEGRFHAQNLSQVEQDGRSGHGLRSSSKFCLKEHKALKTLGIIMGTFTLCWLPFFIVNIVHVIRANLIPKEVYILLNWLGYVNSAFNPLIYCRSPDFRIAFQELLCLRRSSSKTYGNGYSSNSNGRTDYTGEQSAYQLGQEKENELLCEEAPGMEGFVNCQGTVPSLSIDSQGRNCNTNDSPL", "conditions": "SPOC1 cell membranes"}, "[2]": {"system": "β2AR-luciferase fusion genes", "experiment": "Dexamethasone induction of β2AR-luciferase fusion genes in transiently transfected SPOC1 cells", "type": "cell-based, rat", "conditions": "pβ2AR(−3129/+126) in SPOC1 cells; 0.1 μM dexamethasone, 8 hrs"}, "[3]": {"system": "GRE-pT81LUC fusion genes", "experiment": "Dexamethasone induction of putative GREs fused to heterologous thymidine kinase promoter (pT81LUC) in HepG2 cells", "type": "cell-based, human", "conditions": "0.1 μM dexamethasone", "description": "Plasmid constructs with the luciferase gene under the control of the tk promoter and various putative GREs (see FIG. 8 for sequences) were tested for luciferase activity after transfection into HepG2 cells that were co-transfected with pRShGRα. Transfected cells were incubated for 48 hours prior to addition of 0.1 μM dexamethasone.\nTo further examine the functionality of the putative glucocorticoid response elements, fragments containing either GRE1, GRE5, or GRE2, GRE3 and GRE4 together were fused to pT81LUC, a luciferase expression plasmid driven by a minimal thymidine kinase promoter.^102 Sequences of the double stranded oligonucleotides containing GRE1, GRE5 and the MMTV GRE are shown in FIG. 10. […] Activity of GRE5-pT81LUC was induced 3.2-fold in the presence of 0.1 μM dexamethasone (FIG. 12), a value that was higher than that observed with any of the β2AR-luciferase fusion genes that included GRE5. Activity of GRE1-pT81LUC was not induced by 0.1 μM dexamethasone (FIG. 12). […] This level of fold-induction was similar to that obtained with MMTVsequence fused to pT81LUC."}, "[4]": {"system": "β2AR-luciferase fusion genes", "experiment": "Dexamethasone induction of β2AR-luciferase fusion genes transiently transfected into HepG2 cells", "type": "cell-based, human", "conditions": "pβ2AR(−643/+126); 0.1 μM dexamethasone, 8 hrs", "description": "HepG2 cells were transiently transfected with pRShGRα, pRSVβ-ga1, and either pβ2AR(−62/+126), pβ2AR(−152/+126), pβ2AR(−643/+126), pβ2AR(−1115/+126), pβ2AR(−2552/+126), pβ2AR(−3129/+126), or N-600 prATLUC. Transfected cells were incubated for 48 hours prior to addition of dexamethasone. Luciferase activity for each construct is expressed relative to that obtained with pβ2AR(−62/+126) in the absence of dexamethasone.\nHuman HepG2 cells were transiently transfected with pRShGRα, pRSVβ-gal, and either pβ2AR(−3129/+126) or pβ2ARm1 (−3129/+126) as described in the specification. After transfection, the cells were incubated for 8 hours in either the absence or presence of 0.1 μM dexamethasone and cells were harvested. Values are means±S.E. of data from five independent experiments, each performed in triplicate. Asterisks indicate a significant (p<0.05) difference in luciferase activity from untreated and dexamethasone-treated cells as determined by Student's t-test.\nIn order to determine whether the six putative GREs were functional, six β2AR-luciferase fusion gene deletion mutants were generated. […] To test the effect of dexamethasone on expression of the truncated β2AR-luciferase fusion genes, HepG2 cells transfected with each of the six fusion genes were incubated with either vehicle or 0.1 μM dexamethasone for 8 hrs, and luciferase activity was determined. […]"}, "[5]": {"target": "T1, β2AR", "experiment": "Cyclic AMP accumulation in SPOC1 cells (radioimmunoassay)", "type": "cell-based", "parameters": "Because SPOC1 cells express a wild-type β2AR; endogenous in cells; host or cells: SPOC1 rat tracheal epithelial cells", "description": "Cyclic AMP accumulation was measured by radioimmunoassay. Significant differences were determined by one way ANOVA and Neuman-Keuls test.\nIn order to determine if the recombinant β2AR expressed in clonal SPOC1 cells is able to functionally couple to adenylyl cyclase, cyclic AMP radioimmunoassays are performed using lysates. Mock-infected and clonal SPOC1 cells are plated at a density of 100,000 cells/well in 12-well dishes (Costar, Cambridge, Mass.). Cells are treated with adrenergic agonists and the phosphodiesterase inhibitor isobutylmethylxanthine (IBMX) for 10 min. Cellular cyclic AMP levels are determined by radioimmunoassay using the Biotrak CAMP Assay System (Amersham Life Science, Arlington Heights, Ill.). […] These experiments are repeated four times with four different SPOC1 cell platings."}, "[6]": {"system": "mucociliary clearance", "conditions": "inhaled, humans, controls and asthmatic individuals; cited from earlier work"}, "[7]": {"target": "glucocorticoid receptor alpha (expressed from pRShGRalpha) (Homo sapiens) (UniProt P04150)", "sequence (P04150 whole entry)": "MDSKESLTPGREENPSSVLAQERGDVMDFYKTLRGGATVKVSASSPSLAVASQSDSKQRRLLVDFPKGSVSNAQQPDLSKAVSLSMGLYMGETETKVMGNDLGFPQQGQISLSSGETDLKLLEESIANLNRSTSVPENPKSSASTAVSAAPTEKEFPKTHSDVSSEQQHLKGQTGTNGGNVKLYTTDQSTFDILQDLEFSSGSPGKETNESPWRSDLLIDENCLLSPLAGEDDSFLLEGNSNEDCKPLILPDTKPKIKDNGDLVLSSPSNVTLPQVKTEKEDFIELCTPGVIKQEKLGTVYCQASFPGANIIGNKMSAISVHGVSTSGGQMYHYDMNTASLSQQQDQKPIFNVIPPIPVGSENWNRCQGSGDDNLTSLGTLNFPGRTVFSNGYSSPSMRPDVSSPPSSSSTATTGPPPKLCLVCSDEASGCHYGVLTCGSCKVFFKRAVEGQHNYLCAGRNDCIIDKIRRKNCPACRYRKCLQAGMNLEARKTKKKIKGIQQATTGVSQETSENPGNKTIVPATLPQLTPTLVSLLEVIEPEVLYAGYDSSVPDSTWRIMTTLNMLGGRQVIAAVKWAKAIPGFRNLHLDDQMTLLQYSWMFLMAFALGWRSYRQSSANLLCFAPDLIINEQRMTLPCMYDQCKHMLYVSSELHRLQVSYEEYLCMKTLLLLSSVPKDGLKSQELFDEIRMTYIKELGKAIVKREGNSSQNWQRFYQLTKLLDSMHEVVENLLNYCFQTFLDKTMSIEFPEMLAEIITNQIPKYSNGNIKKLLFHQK", "experiment": "cell_activity", "conditions": "MMTV-pT81LUC in HepG2, 0.1 uM dexamethasone"}, "[8]": {"target": "glucocorticoid receptor (recombinant human GR) (Homo sapiens, UniProt P04150 P04150:1-777)", "sequence (P04150 whole entry, one chain of several)": "as the sequence (P04150 whole entry) above", "experiment": "competition; unlabeled competitor did not compete with labeled GRE5 at up to 250-fold excess", "conditions": "chain copies: 2", "description": "To further characterize the ability of GRE₅ to bind glucocorticoid receptor in vitro, we performed electrophoretic mobility shift assays with recombinant human glucocorticoid receptor and serial dilutions of various competitor oligonucleotides was performed."}, "[9]": {"target": "glucocorticoid receptor alpha (expressed from pRShGRalpha) (Homo sapiens, UniProt P04150 P04150:1-777)", "sequence (P04150 whole entry, the tested form may be a part, one chain of several)": "as the sequence (P04150 whole entry) above", "experiment": "cell_activity; GRE5-pT81LUC in HepG2, 0.1 uM dexamethasone", "conditions": "tags: co-transfected expression plasmid pRShGRalpha in HepG2 cells; chain copies: 2; label: 32P", "description": "To further examine the functionality of the putative glucocorticoid response elements, fragments containing either GRE₁, GRE₅, or GRE₂, GRE₃ and GRE₄ together were fused to pT81LUC, a luciferase expression plasmid driven by a minimal thymidine kinase promoter.¹⁰² Sequences of the double stranded oligonucleotides containing GRE₁, GRE₅ and the MMTV GRE are shown in FIG. 10."}},
  "note": "Values joined by “and” are separate entries in the source; they are usually repeats but may differ in a detail not shown here. Equal values may be shown once.",
  "data": [
    {"molecule": "CC(C)(C)NCC(O)COc1cccc2[nH]c(C#N)c(I)c12", "note": "(stereo not shown) [[^125I]CYP, [^125I]cyanoiodopindolol]", "values": [
      {"measurement": "binding site concentration", "setting": "[1]; [125I]CYP saturation", "result": 60, "unit": "fmol/mg protein"},
      {"measurement": "Kd", "setting": "[1]; read-out: [125I]CYP dissociation constant, 37° C., 2 hour, nonspecific binding 0.1 μM (−)-propranolol, representative Scatchard plot", "result": 0.01, "unit": "nM"}
    ]},
    {"molecule": "C[C@@H]1C[C@H]2[C@@H]3CCC4=CC(=O)C=C[C@]4(C)[C@@]3(F)[C@@H](O)C[C@]2(C)[C@@]1(O)C(=O)CO", "note": "[dexamethasone]", "values": [
      {"measurement": "induction in luciferase activity", "setting": "[2]", "result": "~2", "unit": "fold"},
      {"measurement": "induction of luciferase activity", "setting": "[3]; GRE5-pT81LUC", "result": 3.2, "unit": "fold"},
      {"measurement": "induction of luciferase activity", "setting": "[3]; MMTV-pT81LUC fusion gene (positive control)", "result": "~4", "unit": "fold"},
      {"measurement": "induction of luciferase activity", "setting": "[4]", "result": "approximately 1.5 fold"}
    ]},
    {"molecule": "CC(C)NCC(O)c1ccc(O)c(O)c1", "note": "(stereo not shown) [isoproterenol]", "values": [
      {"measurement": "Cyclic AMP production", "setting": "[5]", "result": "3.17±0.57 fmol/min/mg protein and 5.95±1.4 fmol/min/mg protein"}
    ]},
    {"molecule": "CCC(NC(C)C)C(O)c1ccc(O)c2[nH]c(=O)ccc12", "note": "(stereo not shown) [procaterol]", "values": [
      {"measurement": "effect on mucociliary clearance", "setting": "[6]", "result": "no effect"}
    ]},
    {"molecule": "CC(C)(C)NCC(O)c1cc(O)cc(O)c1", "note": "(stereo not shown) [terbutaline]", "values": [
      {"measurement": "effect on mucociliary clearance", "setting": "[6]", "result": "increases"}
    ]},
    {"molecule": "MMTV GRE", "values": [
      {"measurement": "activity (fold induction)", "setting": "[7]", "result": 4}
    ]},
    {"molecule": "isobutylmethylxanthine [IBMX]", "values": [
      {"measurement": "Cyclic AMP accumulation", "setting": "[5]; 100 μM IBMX, 10 min at 37° C., control 0.27±0.08, statistically insignificant increase", "result": "0.40±0.04", "unit": "fmol/min/mg protein"}
    ]},
    {"molecule": "B1", "values": [
      {"measurement": "binding result", "setting": "[8]", "result": "no binding"}
    ]},
    {"molecule": "B2", "values": [
      {"measurement": "activity", "setting": "[9]", "result": 3.2, "unit": "fold induction"}
    ]}
  ]
}
